According to patent US20090221530A1, “Relaxase Modulators and Methods of Using Same” (priority 2005, published 2009):
≈ marks a conversion by molar mass, not a printed value. Read-outs that look alike come from different tables or passages of the source.

Columns and labels:
Assay type in all cases: cell-based, E. coli
[1] = tested on: DNA conjugation from F+ (JS10) cells to F− (JS4) cells; experiment: Mating assay (conjugative DNA transfer); settings: Escherichia coli, F+ (JS10) donors to F− (JS4) recipients; FIG. 4D; read-out: EC50 of inhibition of DNA conjugation
Protocol: Mating assays were performed as described (Matson et al., 2001). Briefly, the donor strain JS10 contains pOX38T, a mini-F-plasmid capable of conjugative transfer, which also carries a Tet resistance gene, while the recipient strain JS4 is F− and Str^r. Donor and recipient strains from saturated overnight cultures grown under antibiotic selection were diluted 1:50 into LB and grown to an OD600 of approximately 0.6 in the absence of selection at 37° C. Donors and recipients were then mixed at a ratio of one donor to nine recipients in the presence of the desired concentrations of pNp (e.g., 10, 100 μM, 1, 10 mM) and incubated at 37° C. for five minutes. Following this incubation, the mating mixtures were diluted 1:10 into LB containing the desired concentration of pNp and incubated for a further 30 minutes. Following mating, the mixtures were vortexed to disrupt mating pairs and serially diluted into 0.9% sterile saline. Dilutions, predicted to result in 300-500 colonies on positive control plates, were plated on LB-agar plates containing both streptomycin and tetracycline in order to select for transconjugants and counter select for donors and unmated recipients. Eight replicate samples of each final dilution were plated, the colony counts culled for outliers at 95% confidence, and then averaged.

[2] = tested on: F− recipient cells; experiment: microbe, parasite or virus in culture; settings: for EC50: Escherichia coli, 100 min, vs. F− recipient cells, read-out: 100 minute EC50; for Selectivities by EC50, Donors: listed as vs. F− recipient cells relative to donors; for Selectivities by EC50, Transconj.: listed as vs. F− recipient cells relative to transconjugants
Description: (§1) A 96-well fluorescence-based assay using oxygen biosensor plates (Becton Dickinson, Franklin Lakes, N.J., U.S.A.) was employed to monitor bacterial cell survival. FIG. 7 schematically illustrates the assay mechanism of action. […] In the absence of viable bacteria, however, no fluorescence emission is detected because the fluorophore is quenched by free oxygen. The assay can further be utilized to measure conjugative DNA transfer.
(§2) Relaxase-dependent cell survival was examined by placing cultures of F+/TraI+ E. coli cells (with antibiotic resistance, e.g., Ab^r1, on a non-conjugative plasmid) within wells and exposing them to putative inhibitory compounds. […] Negative controls for this assay can be F− (Ab^r2) cells and F+ cells (Ab^r1) containing either no F plasmid relaxase (TraI) gene, or a TraI harboring catalytic tyrosine to phenylalanine mutations; in both cases, these control cells should be resistant to relaxase-dependent cell toxicity. […] Fluorescence can be measured using a PHERASTAR™ fluorescence plate reader (BMG LABTECH, Offenburg, Germany) over 8 hours time.

[3] = tested on: transconjugants; experiment: microbe, parasite or virus in culture; settings: for EC50: Escherichia coli, 100 min, read-out: 100 minute EC50, vs. transconjugants; for Selectivities by EC50, Donors: listed as vs. transconjugants relative to donors
Description: as §1, §2

[4] = tested on: F+ donor cells; experiment: microbe, parasite or virus in culture; settings: for EC50: Escherichia coli, 100 min, vs. F+ donor cells, read-out: 100 minute EC50; for Selectivities by EC50, Transconj.: listed as vs. F+ donor cells relative to transconjugants
Description: as §1, §2

[5] = tested on: F+ or F− cells; experiment: 24 hr. MIC bounds (turbid/clear wells); settings: Escherichia coli, 8x serial dilutions, bounds identical for F+ or F− cells
[6] = first EC50 block, mass concentration
[7] = second block, mass concentration

With O=P(O)(O)NP(=O)(O)O [pNp, imidodiphosphate] the EC50 [1] was ~10 µM, the EC50 [2, 6] was 105 µg/mL and the EC50 ([2]; first EC50 block) was 593 ± 3.5 µM. The EC50 [2, 7] was 6000 µg/mL, the EC50 ([2]; second block) was 35000 µM and the “Selectivities by EC50, Donors” value ([2]; first EC50 block) was 1.7E+03. For the same molecule, the “Selectivities by EC50, Donors” value ([2]; second block) was 8.0E−01, the “Selectivities by EC50, Transconj.” value ([2]; first EC50 block) was 1.1E+02 and the “Selectivities by EC50, Transconj.” value ([2]; second block) was 4.0E−00. The EC50 ([3]; first EC50 block) was 5 µM, the EC50 [3, 6] was 0.936 µg/mL and the EC50 ([3]; second block) was 9000 µM. For the same molecule, the EC50 [3, 7] was 2000 µg/mL, the “Selectivities by EC50, Donors” value ([3]; first EC50 block) was 1.5E+01 and the “Selectivities by EC50, Donors” value ([3]; second block) was 2.0E−01. The EC50 [4, 6] was 0.063 µg/mL, the EC50 ([4]; first EC50 block) was 0.356 µM and the EC50 [4, 7] was 8000 µg/mL. For the same molecule, the EC50 ([4]; second block) was 43000 µM, the “Selectivities by EC50, Transconj.” value ([4]; first EC50 block) was 6.7E−02 and the “Selectivities by EC50, Transconj.” value ([4]; second block) was 4.9E+00. For the same molecule, the MIC ([5]; clear wells after 24 hr. incubation, read-out: 24 hr. MIC bounds, upper) was 100 mM (≈ 17700 µg/mL) and the MIC ([5]; turbid wells after 24 hr. incubation, read-out: 24 hr. MIC bounds, lower) was 12.5 mM (≈ 2210 µg/mL).
